Calls of active or inactive are those of the source. The rule behind the calls is not given here.
What was measured:
[1] = target: T1, Lysine-specific histone demethylase 1A (Homo sapiens, UniProt O60341); experiment: Inhibition of LSD1 in human SGC-7901 cells assessed as increase in H3K4me1 expression level at 0 to 30 nmol/L incubated for 48 hrs by Western blot analysis; format: cell-based; settings: dose 0-30 nmol/L
MGC-803 [2] = experiment: Induction of cell cycle arrest in human MGC-803 cells assessed as reduction in cyclin B1 protein expression incubated for 48 hrs by Western blot analysis; format: functional, cell-based; settings: dose 0-24 nmol/L
MGC-803 [3] = experiment: Induction of apoptosis in human MGC-803 cells assessed as activation of caspase-3 at 0 to 24 nmol/L incubated for 48 hrs by Western blot analysis; format: functional, cell-based; settings: dose 0-24 nmol/L
Huh-7 = experiment: Antiproliferative activity against human Huh-7 cells assessed as inhibition of cell growth incubated for 48 hrs by MTT assay; format: functional, cell-based; settings: Huh-7, 48 h
MGC-803 [4] = experiment: Antiproliferative activity against human MGC-803 cells assessed as inhibition of cell growth at 10 to 30 nM by MTT assay; format: functional, cell-based; settings: dose 10-30 nM, time 0-60 hrs, TDE = time-dependent effect
Tubulin (Homo sapiens) [5] = target: T2, Tubulin (Homo sapiens) (UniProt P68371+Q9H4B7+P0DPH7+P68366+Q13509+Q71U36+P04350+Q3ZCM7+P07437+P68363+Q9BQE3+Q6PEY2+Q13885+Q9BVA1+Q9BUF5); experiment: Inhibition of tubulin polymerization in human SGC-7901 cells assessed as destruction of microtubule network incubated for 48 hrs by immunofluorescence staining based fluorescence microscopic analysis; format: cell-based; settings: dose 0-30 nmol/L
[6] = Nephrotoxicity in BALB/c nude mouse xenografted with human MGC-803 cells assessed as effect on BUN level at 25 mg/kg/day, ip administered every day for 21 days; format: toxicity, organism-based; settings: in vivo, 504 h, time 21 day
[7] = target: T3, Tubulin beta (Homo sapiens) (UniProt P68371+Q9H4B7+Q13509+P04350+Q3ZCM7+P07437+Q13885+Q9BVA1+Q9BUF5+A6NNZ2); experiment: Binding affinity to colchicine binding site of beta-tubulin in human MGC-803 cells assessed as inhibition of beta-tubulin alkylation by measuring disappearance of beta-tubulin-EBI adduct band pretreated for 2 hrs followed by EBI addition and measured after 2 hrs by Western blot analysis; format: cell-based; settings: dose 0-10 µM, time 4.0 hrs
MGC-803 [8] = experiment: Induction of apoptosis in human MGC-803 cells assessed as downregulation of Mcl-1 protein expression incubated for 48 hrs by Western blot analysis; format: functional, cell-based; settings: dose 0-24 nmol/L
MGC-803 [9] = experiment: Induction of cell cycle arrest in human MGC-803 cells assessed as downregulation of CDC2 protein expression incubated for 48 hrs by Western blot analysis; format: functional, cell-based; settings: dose 0-24 nmol/L
MGC-803 [10] = experiment: Induction of morphological changes in human MGC-803 cells assessed as appearance of oblate and bright cells at 0 to 24 nmol/L incubated for 48 hrs by bright field microscopic analysis; format: functional, cell-based; settings: dose 0-24 nmol/L
SGC-7901 [11] = experiment: Induction of apoptosis in human SGC-7901 cells assessed as increase in cleaved caspase-3 level at 0 to 30 nmol/L incubated for 48 hrs by Western blot analysis; format: functional, cell-based; settings: dose 0-30 nmol/L
MGC-803 [12] = experiment: Induction of apoptosis in human MGC-803 cells assessed as total apoptotic cells at 24 nmol/L incubated for 48 hrs by Annexin-FITC/PI staining based flow cytometry analysis (reference value: 10.9%); format: functional
SGC-7901 [13] = experiment: Induction of morphological changes in human SGC-7901 cells assessed as varied size of nucleus at 0 to 30 nmol/L incubated for 48 hrs by DAPI staining based analysis; format: functional, cell-based; settings: dose 0-30 nmol/L
MGC-803 [14] = experiment: Induction of cell cycle arrest in human MGC-803 cells assessed as reduction in CDC2 phosphorylation at Thr161 residue at 0 to 24 nmol/L incubated for 48 hrs by Western blot analysis; format: functional, cell-based; settings: dose 0-24 nmol/L
Tubulin = experiment: Inhibition of tubulin polymerization (unknown origin) assessed as reduction in fluorescence intensity measured every 60 secs for 1 hr by microplate reader analysis; format: protein-complex assay, Homo sapiens
SGC-7901 [15] = experiment: Induction of apoptosis in human SGC-7901 cells assessed as total apoptotic cells at 30 nmol/L incubated for 48 hrs by Annexin-FITC/PI staining based flow cytometry analysis (reference value: 5.9%); format: functional
MGC-803 [16] = experiment: Antitumor activity against human MGC-803 cells xenografted in BALB/c nude mouse assessed as reduction in tumor weight at 25 mg/kg/day, ip administered every day for 21 days; format: functional, organism-based; settings: time 21.0 day
HCT-116 = experiment: cells; settings: Homo sapiens, HCT-116, 48 h
Description: Antiproliferative activity against human HCT-116 cells assessed as inhibition of cell growth incubated for 48 hrs by MTT assay

[17] = Hepatotoxicity in BALB/c nude mouse xenografted with human MGC-803 cells assessed as effect on ALT level at 25 mg/kg/day, ip administered every day for 21 days; format: toxicity, organism-based; settings: in vivo, 504 h, time 21 day
[18] = target: T1, Lysine-specific histone demethylase 1A; experiment: Inhibition of LSD1 in human MGC-803 cells assessed as increase in H3K4me1 expression level at 0 to 24 nmol/L incubated for 48 hrs by Western blot analysis; format: cell-based; settings: dose 0-24 nmol/L
Tubulin (Homo sapiens) [19] = target: T2, Tubulin (Homo sapiens); experiment: Inhibition of tubulin polymerization in human MGC-803 cells assessed as destruction of microtubule network incubated for 48 hrs by immunofluorescence staining based fluorescence microscopic analysis; format: cell-based; settings: dose 0-24 nmol/L
MGC-803 [20] = experiment: Induction of apoptosis in human MGC-803 cells assessed as increase in cleaved caspase-3 level at 0 to 24 nmol/L incubated for 48 hrs by Western blot analysis; format: functional, cell-based; settings: dose 0-24 nmol/L
NCI-H520 = experiment: Antiproliferative activity against human NCI-H520 cells assessed as inhibition of cell growth incubated for 48 hrs by MTT assay; format: functional, cell-based; settings: NCI-H520, 48 h
[21] = Nephrotoxicity in BALB/c nude mouse xenografted with human MGC-803 cells assessed as effect on creatinine level at 25 mg/kg/day, ip administered every day for 21 days; format: toxicity, organism-based; settings: in vivo, 504 h, time 21 day
MGC-803 [22] = experiment: Antitumor activity against human MGC-803 cells xenografted in BALB/c nude mouse assessed as reduction in tumor volume at 25 mg/kg/day, ip administered every day for 21 days; format: functional, organism-based; settings: time 21.0 day
MGC-803 [23] = experiment: Induction of apoptosis in human MGC-803 cells assessed as activation of caspase-7 at 0 to 24 nmol/L incubated for 48 hrs by Western blot analysis; format: functional, cell-based; settings: dose 0-24 nmol/L
MGC-803 [24] = experiment: Induction of morphological changes in human MGC-803 cells assessed as increase in proportion of dead cells at 0 to 24 nmol/L incubated for 48 hrs by calcein-AM/PI staining based analysis; format: functional, cell-based; settings: dose 0-24 nmol/L
[25] = target: T3, Tubulin beta (Homo sapiens); experiment: Binding affinity to colchicine binding site of beta-tubulin in human SGC-7901 cells assessed as inhibition of beta-tubulin alkylation by measuring disappearance of beta-tubulin-EBI adduct band pretreated for 2 hrs followed by EBI addition and measured after 2 hrs by Western blot analysis; format: cell-based; settings: dose 0-10 µM, time 4.0 hrs
SGC-7901 [26] = experiment: Induction of apoptosis in human SGC-7901 cells assessed as increase in cleaved PARP level at 0 to 30 nmol/L incubated for 48 hrs by Western blot analysis; format: functional, cell-based; settings: dose 0-30 nmol/L
MGC-803 [27] = experiment: Induction of apoptosis in human MGC-803 cells assessed as increase in cleaved caspase-7 level at 0 to 24 nmol/L incubated for 48 hrs by Western blot analysis; format: functional, cell-based; settings: dose 0-24 nmol/L
SGC-7901 [28] = experiment: Induction of cell cycle arrest in human SGC-7901 cells assessed as increase in p-Histone H3 protein expression incubated for 48 hrs by Western blot analysis; format: functional, cell-based; settings: dose 0-30 nmol/L
MGC-803 [29] = experiment: Induction of apoptosis in human MGC-803 cells assessed as downregulation of Bcl-2 protein expression incubated for 48 hrs by Western blot analysis; format: functional, cell-based; settings: dose 0-24 nmol/L

SMILES: COc1ccc(CN(C(=O)CSC(=S)N2CCN(c3ccc(N)cc3)CC2)c2cc(OC)c(OC)c(OC)c2)cc1O
- inhibition [1]: Active
- Activity (MGC-803 [2]): Dose-Dependent Effect
- Activity (MGC-803 [3]): Active
- IC50 (Huh-7): 47.9 nM
- Activity (MGC-803 [4]): Tde
- inhibition (Tubulin (Homo sapiens) [5]): Dose-Dependent Effect
- Activity [6]: Non-Toxic
- Activity [7]: Dose-Dependent Effect
- Activity (MGC-803 [8]): Dose-Dependent Effect
- Activity (MGC-803 [9]): Dose-Dependent Effect
- Activity (MGC-803 [10]): Active
- Activity (SGC-7901 [11]): Active
- Activity (MGC-803 [12]): 85.5%
- Activity (SGC-7901 [13]): Active
- Activity (MGC-803 [14]): Active
- IC50 (Tubulin): 3060 nM
- Activity (SGC-7901 [15]): 75.4%
- Activity (MGC-803 [16]): Active
- IC50 (HCT-116): 44 nM
- Activity [17]: Non-Toxic
- inhibition [18]: Active
- inhibition (Tubulin (Homo sapiens) [19]): Dose-Dependent Effect
- Activity (MGC-803 [20]): Active
- IC50 (NCI-H520): 22.5 nM
- Activity [21]: Non-Toxic
- Activity (MGC-803 [22]): Active
- Activity (MGC-803 [23]): Active
- Activity (MGC-803 [24]): Active
- Activity [25]: Dose-Dependent Effect
- Activity (SGC-7901 [26]): Active
- Activity (MGC-803 [27]): Active
- Activity (SGC-7901 [28]): Dose-Dependent Effect
- Activity (MGC-803 [29]): Dose-Dependent Effect
